{
  "source": "ChEMBL document CHEMBL3525914",
  "about": "“Induction of hepatic multidrug resistance-associated protein 3 by ethynylestradiol is independent of cholestasis and mediated by estrogen receptor” (Drug Metab Dispos, 2013)",
  "key": {"Rattus norvegicus [1]": {"test_system": "Rattus norvegicus", "experiment": "Toxicity in Wistar rat assessed as bile flow per gm of liver at 5 mg/kg, sc administered as single dose after 5 hrs (reference value: 1.40 +/- 0.14 ul/min)", "type": "organism-based", "design": "dose 5 mg/kg, route subcutaneous", "details": "in vivo; call rule not given here"}, "Rattus norvegicus [2]": {"test_system": "Rattus norvegicus", "experiment": "Toxicity in Wistar rat assessed as biliary excretion of total bile salts per gm of liver at 5 mg/kg, sc administered as single dose after 5 hrs (reference value: 50 +/- 6 nmol/min)", "type": "organism-based", "design": "dose 5 mg/kg, route subcutaneous", "details": "in vivo"}, "Rattus norvegicus [3]": {"test_system": "Rattus norvegicus", "experiment": "Toxicity in Wistar rat assessed as biliary excretion of total glutathione per gm of liver at 5 mg/kg, sc administered as single dose after 5 hrs (reference value: 2 +/- 0.79 nmol/min)", "type": "organism-based", "design": "dose 5 mg/kg, route subcutaneous", "details": "in vivo"}, "Rattus norvegicus [4]": {"test_system": "Rattus norvegicus", "experiment": "Toxicity in Wistar rat assessed as serum ALP activity at 5 mg/kg, sc administered as single dose after 5 hrs (reference value: 256 +/- 10 U/l)", "type": "organism-based", "design": "dose 5 mg/kg, route subcutaneous", "details": "in vivo"}, "Rattus norvegicus [5]": {"test_system": "Rattus norvegicus", "experiment": "Toxicity in Wistar rat assessed as increase in Mrp3 mRNA level at 5 mg/kg, sc administered as single dose after 5 hrs by qRT-PCR analysis", "type": "organism-based", "design": "dose 5 mg/kg, route subcutaneous", "details": "in vivo"}, "Hepatocyte [6]": {"test_system": "Hepatocyte", "experiment": "Effect on Mrp2 mRNA level in Wistar rat hepatocytes at 1 to 10 uM after 5 hrs by qRT-PCR analysis", "type": "ADME, cell-based"}, "Hepatocyte [7]": {"test_system": "Hepatocyte", "experiment": "Effect on total ER level in Wistar rat hepatocytes nuclear extract at 10 uM after 30 to 120 mins by Western blot analysis", "type": "ADME, cell-based"}},
  "data": [
    {"smiles": "C#C[C@]1(O)CC[C@H]2[C@@H]3CCc4cc(O)ccc4[C@H]3CC[C@@]21C", "note": "[ETHINYL ESTRADIOL]", "values": [
      {"measurement": "Activity", "setting": "Rattus norvegicus [1]", "result": 1.35, "unit": "µL/min"},
      {"measurement": "Activity", "setting": "Rattus norvegicus [2]", "result": 47, "unit": "nmol/min"},
      {"measurement": "Activity", "setting": "Rattus norvegicus [3]", "result": 1.8, "unit": "nmol/min"},
      {"measurement": "Activity", "setting": "Rattus norvegicus [4]", "result": 269, "unit": "U/L"},
      {"measurement": "Activity", "setting": "Rattus norvegicus [5]", "result": 330, "unit": "%"},
      {"measurement": "Activity", "setting": "Hepatocyte [6]", "result": "Not Active"},
      {"measurement": "Activity", "setting": "Hepatocyte [7]", "result": "Non-toxic"}
    ]}
  ]
}
